The record followed here is US7816410B2, “Pesticidal compositions” (priority 2003, dated 2010).

Holding throughout (format): in vivo
Conditions in all cases: 15 gai/hL

For data set [1], the system named is glasshouse whitefly (Trialeurodes vaporariorum). The data set is described as follows: Whitefly ovicide protectant test. On the procedure:
(§1) The aim of this study was to determine the efficacy of the compositions of the invention on separate life stages of the glasshouse whitefly (Trialeurodes vaporariorum). Three studies were undertaken, the first to determine the efficacy of the composition of the invention as an ovicide in both protectant and curative treatments. The following composition (Composition B) was prepared: All treatments were applied to tobacco plants (var. Tobacco nicotiana) using a hand-held atomiser (CEME-984), applied to both surfaces of the leaf, to incipient run-off. The composition was applied at 5000, 1000, 200, 100 and 50 mL product/hL, Imidacloprid (reference item) was applied at 15 gai/hL and controls were sprayed with deionised water only. Three replicate plants were sprayed for each treatment. The treated plants were maintained in a controlled environment room at 22.9-34.4° C., with lighting on a 16 h light/8 h dark cycle. Light intensity was recorded as 870-1464 lux. Relative humidity was recorded as being between 25.1-85.2%. For the ovicide test, plants were treated (both infested and uninfested with eggs). For the curative test, leaf discs were taken and egg numbers counted. For the protectant test, treated plants were infested after treatment then leaf discs taken with known numbers of eggs. […]

The test system is the same in data set [2]. The data set is described as follows: Whitefly nymph curative test. The text has this: The aim of this study was to determine the efficacy of the compositions of the invention on separate life stages of the glasshouse whitefly (Trialeurodes vaporariorum).
A second test was to determine the efficacy of composition B as a curative treatment against whitefly nymphs and the third test was to determine the effects of the composition as a (repellent) protectant spray against whitefly adults.
All treatments were applied to tobacco plants (var. Tobacco nicotiana) using a hand-held atomiser (CEME-984), applied to both surfaces of the leaf, to incipient run-off. The composition was applied at 5000, 1000, 200, 100 and 50 mL product/hL, Imidacloprid (reference item) was applied at 15 gai/hL and controls were sprayed with deionised water only.
Three replicate plants were sprayed for each treatment. The treated plants were maintained in a controlled environment room at 22.9-34.4° C., with lighting on a 16 h light/8 h dark cycle. Light intensity was recorded as 870-1464 lux. Relative humidity was recorded as being between 25.1-85.2%.
For the curative nymph test, leaves with nymphs 7-12 days old were treated and assessments of mortality made at 4, 7 and 10 days after application.

The test system is the same in data set [3]. The data set is described as follows: Whitefly adult repellence (protectant) test. From the text:
The aim of this study was to determine the efficacy of the compositions of the invention on separate life stages of the glasshouse whitefly (Trialeurodes vaporariorum). A second test was to determine the efficacy of composition B as a curative treatment against whitefly nymphs and the third test was to determine the effects of the composition as a (repellent) protectant spray against whitefly adults. All treatments were applied to tobacco plants (var. Tobacco nicotiana) using a hand-held atomiser (CEME-984), applied to both surfaces of the leaf, to incipient run-off. The composition was applied at 5000, 1000, 200, 100 and 50 mL product/hL, Imidacloprid (reference item) was applied at 15 gai/hL and controls were sprayed with deionised water only. Three replicate plants were sprayed for each treatment. The treated plants were maintained in a controlled environment room at 22.9-34.4° C., with lighting on a 16 h light/8 h dark cycle. Light intensity was recorded as 870-1464 lux. Relative humidity was recorded as being between 25.1-85.2%. The adult protectant test, assessed the numbers of alive adults on treated leaves after immersion in an adult whitefly infested chamber, 15 and 18 days after application.

Data set [4] has the same test system. The data set is described as follows: Whitefly ovicide curative test. On the procedure: as §1

Regarding `O=[N+]([O-])NC1=NCCN1Cc1ccc(Cl)nc1` [Imidacloprid], the “percentage whitefly egg hatch” value stood at 0.0% in data set [1] (1 DAA); 0.0% in data set [1] (3 DAA); 0.0% in data set [1] (7 DAA); 0.0% in data set [4] (1 DAA); 75.2% in data set [4] (3 DAA); 91.4% in data set [4] (7 DAA). Also, the “percentage whitefly nymph mortality” value in data set [2] (4 DAA), in data set [2] (7 DAA) and in data set [2] (10 DAA) was 100.0% in each case. Moreover, the “number of adult whitefly per leaf” value in data set [3] (15 DAA) and in data set [3] (18 DAA) was 0 throughout.
